This note sets out measurements from ChEMBL document CHEMBL3397027, “Design, synthesis and evaluation of chromone-2-carboxamido-alkylbenzylamines as multifunctional agents for the treatment of Alzheimer's disease” (Bioorg Med Chem, 2015).

Calls of active or inactive are those of the source. The rule behind the calls is not given here. Bounds are passed on as bounds.

Series [1] deals with Amyloid-beta precursor protein (Homo sapiens) (UniProt P05067). As to the kind of experiment: Inhibition of self-mediated aggregation of amyloid beta (1-42) (unknown origin) at 25 uM after 24 hrs by thioflavin T fluorescence-based fluorimetric method.
Sequence of Amyloid-beta precursor protein (Homo sapiens) (P05067 whole entry): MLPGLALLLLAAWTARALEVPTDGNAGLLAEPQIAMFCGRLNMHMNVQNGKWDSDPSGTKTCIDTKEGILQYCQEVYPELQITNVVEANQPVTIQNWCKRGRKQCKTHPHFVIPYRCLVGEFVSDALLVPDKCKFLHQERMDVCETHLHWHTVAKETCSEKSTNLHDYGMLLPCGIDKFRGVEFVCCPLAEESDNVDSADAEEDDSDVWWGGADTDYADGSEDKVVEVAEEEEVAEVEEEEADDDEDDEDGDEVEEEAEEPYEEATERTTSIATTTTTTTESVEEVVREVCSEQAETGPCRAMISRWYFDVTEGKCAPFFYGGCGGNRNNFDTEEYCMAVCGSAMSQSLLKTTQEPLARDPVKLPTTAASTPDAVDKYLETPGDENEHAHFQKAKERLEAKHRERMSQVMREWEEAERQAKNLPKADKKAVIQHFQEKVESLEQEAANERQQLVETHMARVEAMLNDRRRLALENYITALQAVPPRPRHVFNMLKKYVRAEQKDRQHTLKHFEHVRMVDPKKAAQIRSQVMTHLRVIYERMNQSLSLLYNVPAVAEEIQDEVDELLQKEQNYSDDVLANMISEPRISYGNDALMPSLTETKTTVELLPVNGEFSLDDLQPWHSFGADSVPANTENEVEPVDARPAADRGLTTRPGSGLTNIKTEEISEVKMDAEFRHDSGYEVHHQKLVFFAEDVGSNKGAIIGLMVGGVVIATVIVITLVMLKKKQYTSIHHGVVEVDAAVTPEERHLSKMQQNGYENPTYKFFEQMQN
Series [2] in a line: Inhibition of rat serum BuChE using butyrylthiocholine iodide as substrate after 15 mins by Ellman method. In kind it is cell-free.
The species entered for a further series is Rattus norvegicus. Briefly: Selectivity index, ratio of IC50 for rat serum BuChE to IC50 for AChE from rat cortex homogenate. The class given is cell-free.
The target in series [3] is T1, Acetylcholinesterase (Rattus norvegicus, UniProt P37136).
T1 sequence (P37136 whole entry): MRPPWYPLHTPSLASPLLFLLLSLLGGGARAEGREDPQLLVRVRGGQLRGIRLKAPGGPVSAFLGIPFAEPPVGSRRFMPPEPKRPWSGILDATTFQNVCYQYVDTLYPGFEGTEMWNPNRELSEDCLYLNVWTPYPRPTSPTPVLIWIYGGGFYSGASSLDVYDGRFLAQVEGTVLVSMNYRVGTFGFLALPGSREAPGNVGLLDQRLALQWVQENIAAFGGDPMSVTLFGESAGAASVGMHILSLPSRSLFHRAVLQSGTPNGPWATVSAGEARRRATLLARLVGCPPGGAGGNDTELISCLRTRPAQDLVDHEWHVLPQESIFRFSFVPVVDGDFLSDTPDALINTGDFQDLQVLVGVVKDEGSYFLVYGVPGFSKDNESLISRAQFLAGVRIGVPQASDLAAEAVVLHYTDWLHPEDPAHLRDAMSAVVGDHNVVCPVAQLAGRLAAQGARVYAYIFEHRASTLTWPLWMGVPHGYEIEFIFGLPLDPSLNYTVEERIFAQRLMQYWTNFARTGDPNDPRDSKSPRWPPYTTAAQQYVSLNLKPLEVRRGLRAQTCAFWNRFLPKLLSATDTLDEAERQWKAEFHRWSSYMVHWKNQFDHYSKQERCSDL
As to the kind of experiment: Inhibition of AChE from rat cortex homogenate using acetylthiocholine iodide as substrate after 15 mins by Ellman method. In general terms: In Ellman's method for cholinesterases, released thiocholine reacts with DTNB.

For series [4], the target named is Amyloid-beta precursor protein (Homo sapiens) (UniProt P05067). As to the kind of experiment: Inhibition of Cu2+-mediated aggregation of amyloid beta (1-42) (unknown origin) at 25 uM after 24 hrs by thioflavin T fluorescence-based fluorimetric method.
The nature of series [5]: Antioxidant activity assessed as AAPH scavenging activity measured as trolox equivalent at 5 uM after 15 mins by ORAC-FL method relative to control. The class given is physicochemical. The settings on record: 0.25 h.
Series [6] has as its target Acetylcholinesterase (Electrophorus electricus, UniProt O42275). Briefly: Inhibition of electric eel AChE using acetylthiocholine iodide as substrate after 15 mins by Ellman method.
Series [7] can be described thus: Metal chelating activity of the compound assessed as formation of iron-compound complex in methanol solution at 37.5 uM after 30 mins by UV-vis spectrometry. In kind it is physicochemical. The settings on record: 0.5 h.
Series [8] is described as follows: Metal chelating activity of the compound assessed as formation of copper-compound complex in methanol solution at 37.5 uM after 30 mins by UV-vis spectrometry. The class given is physicochemical. Particulars: 0.5 h.
Series [9] deals with Acetylcholinesterase (Electrophorus electricus) (UniProt O42275). As to the kind of experiment: Mixed-type inhibition of electric eel AChE using acetylthiocholine iodide as substrate at 0.0625 to 0.25 uM after 15 mins by Lineweaver-Burk plot method.
Sequence of Acetylcholinesterase (Electrophorus electricus) (O42275 24-633 limits assumed): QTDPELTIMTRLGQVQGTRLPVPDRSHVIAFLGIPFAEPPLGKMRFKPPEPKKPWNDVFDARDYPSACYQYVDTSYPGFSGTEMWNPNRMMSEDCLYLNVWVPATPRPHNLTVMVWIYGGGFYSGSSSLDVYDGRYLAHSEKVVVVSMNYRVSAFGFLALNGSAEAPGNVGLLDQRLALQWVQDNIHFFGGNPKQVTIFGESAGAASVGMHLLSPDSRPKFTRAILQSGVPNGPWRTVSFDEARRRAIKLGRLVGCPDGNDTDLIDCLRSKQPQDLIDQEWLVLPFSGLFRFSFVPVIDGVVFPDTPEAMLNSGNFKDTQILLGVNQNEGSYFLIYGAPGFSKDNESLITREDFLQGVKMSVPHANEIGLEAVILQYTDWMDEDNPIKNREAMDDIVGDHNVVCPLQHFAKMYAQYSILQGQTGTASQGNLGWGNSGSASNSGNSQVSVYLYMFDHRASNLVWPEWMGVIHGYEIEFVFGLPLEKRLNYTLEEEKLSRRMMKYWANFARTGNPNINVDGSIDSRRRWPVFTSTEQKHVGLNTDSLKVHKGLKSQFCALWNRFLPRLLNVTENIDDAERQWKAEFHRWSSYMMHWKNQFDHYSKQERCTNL
Series [10] is described as follows: Metal chelating activity of the compound assessed as formation of zinc-compound complex in methanol solution at 37.5 uM after 30 mins by UV-vis spectrometry. The class given is physicochemical. Particulars: 0.5 h.
Series [11] is described as follows: Metal chelating activity of the compound assessed as formation of aluminium-compound complex in methanol solution at 37.5 uM after 30 mins by UV-vis spectrometry. In kind it is physicochemical. The settings on record: 0.5 h.

Sequence of Acetylcholinesterase (Electrophorus electricus, UniProt O42275) (O42275 whole entry): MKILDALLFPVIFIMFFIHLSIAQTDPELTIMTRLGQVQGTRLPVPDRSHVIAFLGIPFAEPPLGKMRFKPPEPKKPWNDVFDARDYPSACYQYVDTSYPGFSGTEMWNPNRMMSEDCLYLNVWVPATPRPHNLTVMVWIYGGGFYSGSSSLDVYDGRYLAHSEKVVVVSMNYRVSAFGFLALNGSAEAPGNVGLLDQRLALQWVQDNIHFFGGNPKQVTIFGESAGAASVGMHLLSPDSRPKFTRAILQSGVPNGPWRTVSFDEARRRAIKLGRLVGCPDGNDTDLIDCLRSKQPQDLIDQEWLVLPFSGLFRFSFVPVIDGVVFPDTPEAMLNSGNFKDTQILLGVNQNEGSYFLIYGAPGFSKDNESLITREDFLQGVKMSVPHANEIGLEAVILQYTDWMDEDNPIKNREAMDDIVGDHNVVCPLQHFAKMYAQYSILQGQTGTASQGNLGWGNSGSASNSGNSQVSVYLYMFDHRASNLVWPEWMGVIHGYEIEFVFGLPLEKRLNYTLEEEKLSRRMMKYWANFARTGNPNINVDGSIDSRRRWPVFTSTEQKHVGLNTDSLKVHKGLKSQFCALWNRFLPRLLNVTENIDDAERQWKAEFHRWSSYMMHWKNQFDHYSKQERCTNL

As a reminder, the inhibition is the percentage by which the read-out fell short of the control. One may read the IC50 as the midpoint of a concentration-inhibition curve. In the case of `CCN(CCCCNC(=O)c1cc(=O)c2c(O)cc(OC)cc2o1)Cc1ccc(N(C)C)cc1`, the results for the inhibition in series [1] and in [4] were 37.1% and 28.8%, respectively. Further, the IC50 stood at 57.5 µM in series [2], 7.45 µM at Acetylcholinesterase [3] and 9.05 µM at Acetylcholinesterase [6] (read-out: IC50). Further, the Ratio IC50 in the series filed under Rattus norvegicus worked out at 7.7. In series [5], the “fold change (FC)” value turned out to be 2.2.

On to `COc1cc(O)c2c(=O)cc(C(=O)NCCCN(C)Cc3ccccc3OC)oc2c1`, for which the inhibition in series [1] stood at 43.6%; in [4], 28.7%. Besides, the figures for the IC50 (in series [2]; against Acetylcholinesterase [3]; on Acetylcholinesterase [6] (read-out: IC50)) were 171 µM, 4.01 µM and 9.8 µM, respectively. Besides, the Ratio IC50 in the series listed under Rattus norvegicus turned out to be 42.5. Besides, the “fold change (FC)” value in [5] amounted to 0.93.

Consider `COc1cc(O)c2c(=O)cc(C(=O)NCCCCN(C)Cc3ccccc3OC)oc2c1`, for which the results for the inhibition in series [1] and in [4] were 47.5% and 36.3%, respectively. In addition, the results for the IC50 (in [2]; against Acetylcholinesterase [3]; on Acetylcholinesterase [6] (read-out: IC50)) were 82.1 µM, 2.9 µM and 3.5 µM, respectively. In addition, the Ratio IC50 in the series filed under Rattus norvegicus turned out to be 28.3. The “fold change (FC)” value in series [5] is listed as 0.55.

`CCN(CCCCNC(=O)c1cc(=O)c2c(O)cccc2o1)Cc1ccccc1OC`: the Activity entry in series [7] is given as “Not Active”; in series [8] it was “Active”; in series [10], “Not Active”; in series [11] it was “Not Active”. In addition, the inhibition in series [1] turned out to be 59.2%; in series [4], 48.3%. Moreover, the IC50 was found to be 51.5 µM in series [2], 0.07 µM against Acetylcholinesterase [3] and 0.55 µM at Acetylcholinesterase [6] (read-out: IC50). Further, the Ratio IC50 in the series listed under Rattus norvegicus came out at 736. Further, the inhibition result in series [9] is “Active”. The “fold change (FC)” value in series [5] turned out to be 0.83.

As to `COc1cc(O)c2c(=O)cc(C(=O)NCCCN(C)Cc3ccccc3)oc2c1`, the inhibition amounted to 23% in [1] and 24.3% in series [4]. For the same compound, the IC50 in series [2] is over 200 µM; on Acetylcholinesterase [3], 15.3 µM; at Acetylcholinesterase [6] (read-out: IC50) it was 3.12 µM. Also, in the series listed under Rattus norvegicus, the Ratio IC50 is over 13.1. The “fold change (FC)” value in series [5] is 0.46.

On to `COc1cc(O)c2c(=O)cc(C(=O)NCCCCCCN(C)Cc3ccccc3)oc2c1`, for which the inhibition in series [1] was 33.5%; in series [4] it was 37.1%. The results for the IC50 (in series [2]; at Acetylcholinesterase [3]; on Acetylcholinesterase [6] (read-out: IC50)) were 50.1 µM, 3.03 µM and 0.25 µM, respectively. The Ratio IC50 in the series listed under Rattus norvegicus stood at 16.5. The “fold change (FC)” value in series [5] is listed as 1.

With `CCN(CCCNC(=O)c1cc(=O)c2c(O)cc(OC)cc2o1)Cc1ccccc1OC`, the inhibition in series [1] came to 47.9%; in [4], 27.2%. For the same compound, the values for the IC50 (in series [2]; at Acetylcholinesterase [3]; at Acetylcholinesterase [6] (read-out: IC50)) were 197 µM, 0.88 µM and 1.85 µM, respectively. The Ratio IC50 in the series listed under Rattus norvegicus came out at 224. In addition, the “fold change (FC)” value in series [5] worked out at 0.54.

As to `CCN(CCCCCCNC(=O)c1cc(=O)c2c(O)cc(OC)cc2o1)Cc1ccccc1OC`, the inhibition in [1] came to 58.2%; in series [4], 52%. Also, the IC50 was determined as 49.9 µM in series [2], 0.23 µM against Acetylcholinesterase [3] and 0.56 µM on Acetylcholinesterase [6] (read-out: IC50). In addition, the Ratio IC50 in the series listed under Rattus norvegicus came to 217. The “fold change (FC)” value in series [5] is listed as 0.76.

With `CCN(CCCNC(=O)c1cc(=O)c2c(O)cc(OC)cc2o1)Cc1ccccc1`, the inhibition is 21.1% in series [1] and 31.5% in [4]. The values for the IC50 (in series [2]; against Acetylcholinesterase [3]; on Acetylcholinesterase [6] (read-out: IC50)) were 83.5 µM, 7.94 µM and 11.2 µM, respectively. Moreover, the Ratio IC50 in the series filed under Rattus norvegicus amounted to 10.5. Further, in series [5], the “fold change (FC)” value was 0.66.

For the compound `COc1ccccc1CN(C)CCCCNC(=O)c1cc(=O)c2c(O)cccc2o1`, the inhibition in [1] came to 49.3%; in series [4] it was 24.1%. The IC50 in series [2] turned out to be 55 µM; against Acetylcholinesterase [3] it was 1.37 µM; at Acetylcholinesterase [6] (read-out: IC50), 3.29 µM. Also, the Ratio IC50 in the series filed under Rattus norvegicus was found to be 40.1. The “fold change (FC)” value in series [5] was determined as 0.81.

As to `CCN(CCCCCCNC(=O)c1cc(=O)c2c(O)cc(O)cc2o1)Cc1ccccc1OC`, the inhibition in series [1] was found to be 39.4%; in series [4] it was 28.7%. The IC50 is over 200 µM in [2], 0.87 µM on Acetylcholinesterase [3] and 1.4 µM at Acetylcholinesterase [6] (read-out: IC50). The Ratio IC50 in the series filed under Rattus norvegicus was over 200. Besides, the “fold change (FC)” value in series [5] turned out to be 2.25.

With `CCN(CCCCNC(=O)c1cc(=O)c2c(O)cc(O)cc2o1)Cc1ccccc1OC`, the inhibition is 37.8% in series [1] and 32.1% in [4]. For the same compound, the IC50 in series [2] amounted to 141 µM; against Acetylcholinesterase [3] it was 1.11 µM; on Acetylcholinesterase [6] (read-out: IC50), 36.2 µM. The Ratio IC50 in the series filed under Rattus norvegicus amounted to 127. Further, in [5], the “fold change (FC)” value is reported as 2.3.

`COc1ccccc1CN(C)CCCNC(=O)c1cc(=O)c2c(O)cccc2o1`: the inhibition was 50.6% in series [1] and 23.8% in series [4]. The IC50 in [2] was 102 µM; at Acetylcholinesterase [3], 9.51 µM; at Acetylcholinesterase [6], “Not Active”. Also, the Ratio IC50 in the series listed under Rattus norvegicus is 10.7. Further, in series [5], the “fold change (FC)” value turned out to be 1.64.

With `CCN(CCCCNC(=O)c1cc(=O)c2c(O)cc(OC)cc2o1)Cc1ccccc1OC`, the results for the inhibition in series [1] and in series [4] were 51% and 38.9%, respectively. In addition, the IC50 in series [2] was found to be 86.5 µM; against Acetylcholinesterase [3] it was 0.33 µM; at Acetylcholinesterase [6] (read-out: IC50) it was 1.16 µM. The Ratio IC50 in the series listed under Rattus norvegicus was 262. Also, the “fold change (FC)” value in series [5] is 0.62.

Turning to `CCN(CCCCCCNC(=O)c1cc(=O)c2c(O)cccc2o1)Cc1ccccc1OC`, the results for the inhibition in [1] and in series [4] were 63% and 55.6%, respectively. The IC50 in series [2] is 23.2 µM; on Acetylcholinesterase [3] it was 0.19 µM; on Acetylcholinesterase [6] (read-out: IC50), 0.53 µM. Besides, the Ratio IC50 in the series listed under Rattus norvegicus was 122. The “fold change (FC)” value in series [5] turned out to be 0.87.

As for `CCN(CCCCNC(=O)c1cc(=O)c2c(O)cc(N(C)C)cc2o1)Cc1ccccc1N(C)C`, the figures for the inhibition in series [1] and in series [4] were 40.8% and 30.7%, respectively. Besides, the IC50 in [2] turned out to be 149 µM; against Acetylcholinesterase [3], 1.39 µM; on Acetylcholinesterase [6] (read-out: IC50) it was 3.53 µM. For the same compound, the Ratio IC50 in the series listed under Rattus norvegicus is 107. In series [5], the “fold change (FC)” value was 1.34.

In the case of `C#CCN(CCCCNC(=O)c1cc(=O)c2c(O)cc(OC)cc2o1)Cc1ccccc1OC`, the results for the inhibition in [1] and in [4] were 22.4% and 21.5%, respectively. In addition, the half-inhibitory concentration (IC50) worked out at 57.3 µM in [2], 13.6 µM at Acetylcholinesterase [3] and 73 µM on Acetylcholinesterase [6] (read-out: IC50). Moreover, the Ratio IC50 in the series listed under Rattus norvegicus is 4.2. Besides, the “fold change (FC)” value in series [5] was found to be 0.56.

As for `CCN(CCCCCCNC(=O)c1cc(=O)c2c(O)cc(OC)cc2o1)Cc1ccccc1`, the figures for the inhibition in [1] and in [4] were 28.6% and 42.6%, respectively. Further, the values for the IC50 (in [2]; at Acetylcholinesterase [3]; on Acetylcholinesterase [6] (read-out: IC50)) were 53.5 µM, 1.7 µM and 1.38 µM, respectively. Further, the Ratio IC50 in the series listed under Rattus norvegicus was 31.5. For the same compound, the “fold change (FC)” value in series [5] is reported as 0.65.

Regarding `COc1cc(O)c2c(=O)cc(C(=O)NCCCCCCN(C)Cc3ccccc3OC)oc2c1`, the inhibition in [1] is 43.9%; in [4] it was 48.1%. Moreover, the IC50 amounted to 43.3 µM in series [2], 1.59 µM at Acetylcholinesterase [3] and 0.58 µM at Acetylcholinesterase [6] (read-out: IC50). In addition, the Ratio IC50 in the series listed under Rattus norvegicus turned out to be 27.2. The “fold change (FC)” value in [5] is given as 1.3.
